Results on ten compounds are retold here after PMC5526615, “Phenotypic, chemical and functional characterization of cyclic nucleotide phosphodiesterase 4 (PDE4) as a potential anthelmintic drug target” (PLoS Neglected Tropical Diseases, 2017).

One experiment relates to adult S. mansoni. Put plainly: Wormassay adult worm motility. In kind it is cell-based. The note with it: Schistosoma mansoni, 1 h, read-out: Adult motility (-fold increase vs. DMSO controls). How it is done:
Adult schistosome screens were performed in 24-well plates (Corning Inc., cat. # 3544) using five worm pairs per well in a final volume of 2 ml of the above Basch medium. Compound was added in a volume of 1 μl DMSO such that the final concentration was 10 μM. Incubations were maintained for 3 days at 37°C under 5% CO2.
Parasite responses to chemical insult were adjudicated visually every 24 h (also at the 1 h time point for adults) using an inverted microscope and employed a constrained nomenclature of phenotype descriptors (e.g., rounding, degeneration, overactivity and slowed motility) as described. For adult parasites, in addition to observation-based annotations, we employed Wormassay to measure worm motility. Briefly, Wormassay comprises a commodity digital movie camera connected to an Apple personal computer that operates an open source software application to automatically process multiple wells (in 6-, 12- or 24-well plate formats). The application detects worm-induced changes in the occupation and vacancy of pixels between frames (outputted as an average ± S.D.). Worm motion was quantified using the “Consensus Voting Luminance Difference” option.

Experiment [1] concerns WT C. elegans (N2 Bristol). Put plainly: C. elegans motility assay (body bends), wild type. In kind it is cell-based, Caenorhabditis elegans. The conditions noted are these: 100 μM, 16 h. How it is done: Compounds were directly added onto the OP50 food source at a 100 μM final concentration or the equivalent 0.2% DMSO as control. Previously synchronized early L4 stage larvae were cultivated on NGM plates with OP50 and compounds at 20°C for 16 h. For each experimental condition and transgenic line, motility was measured for 10–20 animals. The animals were washed twice in S basal buffer, transferred onto a new NGM plate in the absence of bacteria. After a brief period of recovery from this manipulation, locomotion was measured by counting the number of body bends in 30 s intervals under a stereoscope.

A further experiment concerns the target T1, huPDE4B2 (Homo sapiens, UniProt Q07343).
T1 construct: performed using the catalytic domains of (A) huPDE4B2 (NP_001032416.1); purchased Proteros Biostructures, GmbH, Martinsried, Germany
Nature of the experiment: PDE4 inhibition assay, huPDE4B2 catalytic domain ([3H]-cAMP hydrolysis). It is filed as biochemical. The conditions noted are these: Anacor's in-house data, mean ± SD (number of assays) or two single assay values, read-out: Human PDE4B2 IC50.

The target in a further experiment is SmPDE4A (Schistosoma mansoni, UniProt A0A5K4ENE3). Nature of the experiment: biochemical. As for the experimental part: Assays were performed in triplicate, and IC50 values were determined by non-linear regression analysis using the four-parameter logistic equation (Prism GraphPad version. 6.03).
Chain of SmPDE4A (A0A5K4ENE3 entry or part of it): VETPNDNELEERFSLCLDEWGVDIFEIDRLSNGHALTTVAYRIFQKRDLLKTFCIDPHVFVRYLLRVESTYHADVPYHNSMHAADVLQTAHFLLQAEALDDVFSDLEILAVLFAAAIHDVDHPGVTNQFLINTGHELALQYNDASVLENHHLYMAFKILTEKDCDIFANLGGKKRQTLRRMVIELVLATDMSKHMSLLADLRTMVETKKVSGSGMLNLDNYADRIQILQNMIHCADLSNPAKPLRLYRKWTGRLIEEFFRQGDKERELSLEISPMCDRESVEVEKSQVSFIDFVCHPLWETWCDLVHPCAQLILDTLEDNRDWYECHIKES
Assay of PDE4 enzymatic activity was as described: huPDE4B2 was purchased from Proteros Biostructures, GmbH, Martinsried, Germany. […] The precipitate was collected by filtration onto Multi-Screen HTS FB plates (Millipore, Billerica, MA), washed and then dried for quantitation of radioactivity. For tests with PDE4 inhibitors, fifty percent inhibitory concentration (IC50) values were calculated based on a four-parameter logistic equation: the means and number of replicates are reported in Fig 4.

Experiment [2] has as its system pde4(ce268);smpde4a(a) and pde4(ce268);smpde4a(b) transgenic C. elegans. Nature of the experiment: C. elegans motility assay (body bends), transgenic lines expressing smpde4a. It is filed as cell-based, Caenorhabditis elegans. The note with it: 100 μM, 16 h. How it is done: To generate C. elegans that carry the SmPDE4A transgene, the plasmids described above were purified and microinjected into the gonads of both WT (N2) and pde4(ce268) mutant strains at a concentration of 50 ng/μl. The injected worms (P0) were transferred to individual freshly seeded bacteria plates and allowed to reproduce. F1 progeny were screened for evidence of transgene expression based on the GFP marker. Each transgenic F1 was then singled onto a new plate. This process was repeated until lines that stably transmit the transgene were established in WT or pde(ce268) animal backgrounds. To verify the consistency of GFP expression in the transgenic lines, 10–20 transgenic animals from each line were examined using a Zeiss Axioplan II stereoscope equipped with a FITC/GFP filter (emission 500–515 nm).
Compounds were directly added onto the OP50 food source at a 100 μM final concentration or the equivalent 0.2% DMSO as control. Previously synchronized early L4 stage larvae were cultivated on NGM plates with OP50 and compounds at 20°C for 16 h. For each experimental condition and transgenic line, motility was measured for 10–20 animals. […] After a brief period of recovery from this manipulation, locomotion was measured by counting the number of body bends in 30 s intervals under a stereoscope.

The subject of another experiment is huPDE4B. The note with it: huPDE4B ref 96; cited from earlier work.
For a further experiment, the system named is huPDE4A. The note with it: huPDE4A ref 96; cited from earlier work.
The subject of another experiment is huPDE4D. The note with it: huPDE4D ref 96; cited from earlier work.
Where [3] appears, read: recombinant catalytic domain, mean ± SD (number of assays) or two single assay values, read-out: SmPDE4A IC50.
Setting [4] is: SmPDE4A IC50, recombinant catalytic domain, mean ± SD (number of assays) or two single assay values.

Where “and” joins values, the source holds several entries; their conditions need not be identical. Equal values may be shown once. Read-outs that look alike come from different tables or passages of the source.

T1 sequence (Q07343 324-659): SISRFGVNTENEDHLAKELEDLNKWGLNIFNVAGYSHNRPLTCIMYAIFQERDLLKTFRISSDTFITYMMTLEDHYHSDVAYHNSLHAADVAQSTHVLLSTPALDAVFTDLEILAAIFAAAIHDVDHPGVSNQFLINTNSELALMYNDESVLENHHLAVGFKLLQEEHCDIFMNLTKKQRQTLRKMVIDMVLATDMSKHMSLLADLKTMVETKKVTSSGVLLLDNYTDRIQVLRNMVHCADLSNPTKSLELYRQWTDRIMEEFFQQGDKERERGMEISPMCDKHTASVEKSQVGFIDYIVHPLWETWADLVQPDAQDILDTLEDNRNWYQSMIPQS
Protocol for huPDE4B2: Assays with each inhibitor were performed using the catalytic domains of (A) huPDE4B2 (NP_001032416.1) and (B) SmPDE4A (Smp_134140).
Assay of PDE4 enzymatic activity was as described [96]: huPDE4B2 was purchased from Proteros Biostructures, GmbH, Martinsried, Germany. […] The precipitate was collected by filtration onto Multi-Screen HTS FB plates (Millipore, Billerica, MA), washed and then dried for quantitation of radioactivity.

On to `CC(=O)CCCOc1nc(Oc2cc(F)c3c(c2)COB3O)c(Cl)cc1C#N` [Compound 1], for which, in the experiment with adult S. mansoni (Wormassay, 10 μM after 1 h), the fold induction at 10 µM was 9.9.
Take `CC(=O)CCCOc1nc(Oc2ccc3c(c2)COB3O)c(Cl)cc1C#N` [Compound 2]: in the experiment with adult S. mansoni (Wormassay, 10 μM after 1 h), the fold induction at 10 µM is 7.9. Also, the “motility relative to the DMSO control” value in experiment [1] is given as “increased motility”.
For orientation: IC50 means the concentration that gives 50% inhibition. As for `CN(C)C(=O)CCCOc1nc(Oc2ccc3c(c2)COB3O)ccc1C#N` [Compound 3], the fold induction at 10 µM in the experiment with adult S. mansoni (Wormassay, 10 μM after 1 h) was determined as 7.1. The values for the IC50 on huPDE4B2 and on SmPDE4A (setting [3]) were 30 ± 26.7 nM and 14.7 ± 6.4 nM, respectively.
Turning to `CC(C)OCCOc1nc(Oc2ccc3c(c2)COB3O)ccc1C#N` [Compound 4], the fold induction at 10 µM in the experiment on adult S. mansoni (Wormassay, 10 μM after 1 h) was 5.7. The IC50 on huPDE4B2 stood at 3.8 ± 2.7 nM; at SmPDE4A (setting [3]) it was 12 ± 6.2 nM. Further, the “motility relative to the DMSO control” value in experiment [1] is on record as “did not”.
For `N#Cc1ccc(Oc2ccc3c(c2)COB3O)cc1C(F)(F)F` [Compound 5], the fold induction at 10 µM in the experiment on adult S. mansoni was 3.9. Moreover, the IC50 at huPDE4B2 was 68.9 nM and 22.1 nM; on SmPDE4A (setting [4]) it was 47 ± 27.4 nM.
As for `CC(C)S(=O)(=O)c1ccc(Oc2ccc3c(c2)COB3O)cc1` [Compound 6], in the experiment on adult S. mansoni (Wormassay, 10 μM after 1 h), the fold induction at 10 µM is 1.5. The IC50 at huPDE4B2 is 43.6 nM and 65 nM; on SmPDE4A (setting [3]) it was 415 nM.
In the case of `N#Cc1ccc(Oc2ccc3c(c2)COB3O)cc1O` [Compound 7], the fold induction at 10 µM in the experiment on adult S. mansoni (Wormassay, 10 μM after 1 h) came out at 1.1. The IC50 at huPDE4B2 was 19.3 nM and 32.4 nM; on SmPDE4A (setting [3]) it was 123 nM.
Take `O=C(Nc1c(Cl)cncc1Cl)c1ccc(OC(F)F)c(OCC2CC2)c1` [Roflumilast, roflumilast, reference compound]: the IC50 at SmPDE4A (setting [4]) is 11.3 nM and 18 nM and 11 nM.
Regarding `COc1ccc(C2CNC(=O)C2)cc1OC1CCCC1` (stereo not shown) [Rolipram, rolipram, reference compound], in experiment [2], the “motility of mutant lines carrying the smpde4a transgene” value is on record as “increased motility significantly”. On SmPDE4A (recombinant catalytic domain, read-out: SmPDE4A IC50), the IC50 was greater than 10000 nM.
As usually defined, the Km is the substrate concentration at which the rate is half of its maximum. Regarding `Nc1ncnc2c1ncn2[C@@H]1O[C@@H]2COP(=O)(O)O[C@H]2[C@H]1O` [cAMP, cyclic adenosine monophosphate], the results for the Km in the experiment with huPDE4B, in the experiment on huPDE4A and with huPDE4D were 2250 nM, 980 nM and 7.81 µM, respectively.
